± gives the expanded uncertainty stated by the source.
Details: Liquid, Ebulliometric method (Recirculating still)

## CC(=O)CC(C)C [4-methylpentan-2-one]
389.15 K
  vapor or sublimation pressure: 101.3 ± 3 kPa

## CC(=O)N(C)C [N,N-dimethylethanamide]
439.15 K
  vapor or sublimation pressure: 101.3 ± 3 kPa

## CCCCO [butan-1-ol]
390.75 K
  vapor or sublimation pressure: 101.3 ± 3 kPa
